Test results reported in publication PMC9945734 (BMC Medicine, 2023).
Structures can show the parent of a compound that is named as a salt. Where two headings read alike, the source gives them in different places.

Tested on: PC-3-KQ cells
Experiment: 3D spheroid invasion assay and screening of FDA-approved drugs
Format: cell-based, human
Parameters: activity: dose or concentration left out as unconfirmed
Method: The invasion assay was performed as previously described. […] The plates were then centrifuged at 320 g for 4 min to cluster cells in the bottom of wells and incubated for 3 days. On the fourth day, 40 μL medium was removed from each well, 40 μL of the matrigel-medium mixture was added to each well, and cells were cultured for another 3 days. […] At the end of the incubation, images were taken using a phase contrast microscope (Eclipse Ti2, Nikon, Tokyo, Japan) with 10× object lenses, and the total area of cells and the core sphere area of cells (Fig. 1a) were measured using the Image J software. The invading area was calculated using the following formula: invasion area = total area of cells – core sphere area.
For drug screening, drugs were added to the matrigel-medium mixture when replacing the culture medium on day 4. For the initial round of screening, a final concentration of 10 μM was used for all drugs. Multiple drug concentrations were used for the second round of screening, including 0, 0.001, 0.01, 0.1, 1, and 10 μM. Duplicate wells were repeated for each concentration.

[1] = Homo sapiens, 72 h, 0.01 μM (first column so headed), secondary screening of 87 hit compounds (Table S1), compared to vehicle control, read-out: Invasion rates (%) of each drug’s multiple concentrations
[2] = Homo sapiens, 72 h, 0.1 μM, secondary screening of 87 hit compounds (Table S1), compared to vehicle control, read-out: Invasion rates (%) of each drug’s multiple concentrations
[3] = Homo sapiens, 72 h, 1 μM, secondary screening of 87 hit compounds (Table S1), compared to vehicle control, read-out: Invasion rates (%) of each drug’s multiple concentrations
[4] = Homo sapiens, 72 h, 10 μM, secondary screening of 87 hit compounds (Table S1), compared to vehicle control, read-out: Invasion rates (%) of each drug’s multiple concentrations
[5] = Homo sapiens, 72 h, 0.01 μM (first column so headed), third screening of 25 hit compounds (Table S2), compared to vehicle control, read-out: Invasion rates (%) of each drug’s multiple concentrations
[6] = Homo sapiens, 72 h, 0.01 μM (second column so headed), secondary screening of 87 hit compounds (Table S1), compared to vehicle control, read-out: Invasion rates (%) of each drug’s multiple concentrations
[7] = Homo sapiens, 72 h, 0.01 μM (second column so headed), third screening of 25 hit compounds (Table S2), compared to vehicle control, read-out: Invasion rates (%) of each drug’s multiple concentrations
[8] = Homo sapiens, 72 h, 0.1 μM, third screening of 25 hit compounds (Table S2), compared to vehicle control, read-out: Invasion rates (%) of each drug’s multiple concentrations
[9] = Homo sapiens, 72 h, 1 μM, third screening of 25 hit compounds (Table S2), compared to vehicle control, read-out: Invasion rates (%) of each drug’s multiple concentrations
[10] = Homo sapiens, 72 h, 10 μM, third screening of 25 hit compounds (Table S2), compared to vehicle control, read-out: Invasion rates (%) of each drug’s multiple concentrations
[11] = 0.01 μM (first column so headed), secondary screening of 87 hit compounds (Table S1), compared to vehicle control
[12] = 0.01 μM (second column so headed), secondary screening of 87 hit compounds (Table S1), compared to vehicle control
[13] = 0.1 μM, secondary screening of 87 hit compounds (Table S1), compared to vehicle control
[14] = 1 μM, secondary screening of 87 hit compounds (Table S1), compared to vehicle control
[15] = 10 μM, secondary screening of 87 hit compounds (Table S1), compared to vehicle control

NC(=O)N/N=C/c1ccc([N+](=O)[O-])o1 [Nitrofurazone] was tested, and the activity at 0.01 µM [1] was 94.8%, the activity at 0.1 µM [2] was 80.4% and the activity at 1 µM [3] was 70.7%. The activity at 10 µM [4] was 6.3% and the activity (Homo sapiens, 72 h, secondary screening of 87 hit compounds (Table S1), compared to vehicle control, read-out: Invasion rates (%) of each drug’s multiple concentrations) was 98.8%.
Work on Cn1nnc(-c2ccc(-c3ccc(N4C[C@H](COP(=O)(O)O)OC4=O)cc3F)cn2)n1 [Tedizolid (phosphate)] yielded an activity at 0.01 µM [1] of 89%, an activity at 0.01 µM [5] of 99.8% and an activity at 0.01 µM [6] of 91.7%. For the same molecule, the activity at 0.01 µM [7] was 96.1%, the activity at 0.1 µM [2] was 70.7% and the activity at 0.1 µM [8] was 90.7%. The activity at 1 µM [3] was 3.59%, the activity at 1 µM [9] was 3.28% and the activity at 10 µM [4] was 3.35%. It also gave an activity at 10 µM [10] of 2.87%.
COc1ccc(CN(CCN(C)C)c2ccccn2)cc1 [Mepyramine maleate] gave an activity at 0.01 µM [1] of 101%, an activity at 0.01 µM [6] of 98.3% and an activity at 0.1 µM [2] of 99.1%. The activity at 1 µM [3] was 97.9% and the activity at 10 µM [4] was 48.9%.
In the case of CS(=O)(=O)c1ccc([C@@H](O)[C@@H](CO)NC(=O)C(Cl)Cl)cc1 [Thiamphenicol], the activity at 0.01 µM [1] is reported as 90.9%, the activity at 0.01 µM [6] is reported as 92% and the activity at 0.1 µM [2] is reported as 91.7%. It also gave an activity at 1 µM [3] of 71.5% and an activity at 10 µM [4] of 6.21%.
Cc1nc(Nc2ncc(C(=O)Nc3c(C)cccc3Cl)s2)cc(N2CCN(CCO)CC2)n1 [Dasatinib] gave an activity at 0.01 µM [1] of 46.2%, an activity at 0.01 µM [5] of 95.1% and an activity at 0.01 µM [6] of 49.7%. For the same molecule, the activity at 0.01 µM [7] was 97.7%, the activity at 0.1 µM [2] was 37.7% and the activity at 0.1 µM [8] was 83.4%. The activity at 1 µM [3] was 37.1%, the activity at 1 µM [9] was 71.7% and the activity at 10 µM [4] was 15.1%. The activity at 10 µM [10] was 0.9%.
With COC(=O)c1ccc2c(c1)NC(=O)/C2=C(\Nc1ccc(N(C)C(=O)CN2CCN(C)CC2)cc1)c1ccccc1 [Nintedanib] the activity at 0.01 µM [1] was 98.1%, the activity at 0.01 µM [6] was 98.3% and the activity at 0.1 µM [2] was 97.5%. For the same molecule, the activity at 1 µM [3] was 95.2% and the activity at 10 µM [4] was 36.2%.
In the case of Cc1ncc([N+](=O)[O-])n1CCO [Metronidazole], the activity at 0.01 µM [1] is reported as 93.6%, the activity at 0.01 µM [6] is reported as 93.9% and the activity at 0.1 µM [2] is reported as 94.1%. For the same molecule, the activity at 1 µM [3] was 85.7% and the activity at 10 µM [4] was 10.1%.
Work on O=C(N/N=C/c1ccc([N+](=O)[O-])o1)c1ccc(O)cc1 [Nifuroxazide] yielded an activity at 0.01 µM [1] of 68.1%, an activity at 0.01 µM [5] of 97.2% and an activity at 0.01 µM [6] of 86.4%. It also gave an activity at 0.01 µM [7] of 94.3%, an activity at 0.1 µM [2] of 50.2% and an activity at 0.1 µM [8] of 86.5%. For the same molecule, the activity at 1 µM [3] was 9.13%, the activity at 1 µM [9] was 7.31% and the activity at 10 µM [4] was 2.06%. It also gave an activity at 10 µM [10] of 1.51%.
CO[C@@H]1[C@@H](O[C@@H]2O[C@H](C)[C@@H](O[C@H]3C[C@@](C)(O)[C@@H](OC(=O)CC(C)C)[C@H](C)O3)[C@H](N(C)C)[C@H]2O)[C@@H](CC=O)C[C@@H](C)[C@@H](O)/C=C/C=C/C[C@@H](C)OC(=O)C[C@H]1OC(C)=O [Josamycin] was tested, and the activity at 0.01 µM [1] was 88.6%, the activity at 0.01 µM [6] was 86.9% and the activity at 0.1 µM [2] was 86.7%. It also gave an activity at 1 µM [3] of 78% and an activity at 10 µM [4] of 15.5%.
For CCN(CC)CCNC(=O)c1c(C)[nH]c(/C=C2\C(=O)Nc3ccc(F)cc32)c1C [Sunitinib], the activity at 0.01 µM [1] was 88.6%, the activity at 0.01 µM [6] was 94.9% and the activity at 0.1 µM [2] was 83.7%. The activity at 1 µM [3] was 61.1% and the activity at 10 µM [4] was 0.8%.
In the case of CC(=O)[C@]1(O)Cc2c(O)c3c(c(O)c2[C@@H](O[C@H]2C[C@H](N)[C@H](O)[C@H](C)O2)C1)C(=O)c1ccccc1C3=O.Cl [Idarubicin (hydrochloride)], the “Invasion rates (%) of each drug’s multiple concentrations (μM)” value (“Invasion rates (%)” for short) [11] is reported as 80.06%, the “Invasion rates (%)” value (0.01 μM (first column so headed), third screening of 25 hit compounds (Table S2), compared to vehicle control) is reported as 95.32% and the “Invasion rates (%)” value [12] is reported as 88.67%. For the same molecule, the “Invasion rates (%)” value (0.01 μM (second column so headed), third screening of 25 hit compounds (Table S2), compared to vehicle control) was 98.46%, the “Invasion rates (%)” value [13] was 83.45% and the “Invasion rates (%)” value (0.1 μM, third screening of 25 hit compounds (Table S2), compared to vehicle control) was 100.06%. For the same molecule, the “Invasion rates (%)” value [14] was 7.74%, the “Invasion rates (%)” value (1 μM, third screening of 25 hit compounds (Table S2), compared to vehicle control) was 1.25% and the “Invasion rates (%)” value [15] was 3.85%. The “Invasion rates (%)” value (10 μM, third screening of 25 hit compounds (Table S2), compared to vehicle control) was 1.34%.
CC/C(=C(\c1ccccc1)c1ccc(OCCN(C)C)cc1)c1ccccc1.O=C(O)CC(O)(CC(=O)O)C(=O)O [Tamoxifen (Citrate)] was tested, and the “Invasion rates (%)” value [11] was 94.34%, the “Invasion rates (%)” value [12] was 97.97% and the “Invasion rates (%)” value [13] was 91.22%. The “Invasion rates (%)” value [14] was 85.65% and the “Invasion rates (%)” value [15] was 1.00%.
In the case of Daptomycin, the “Invasion rates (%)” value [11] is reported as 96.29%, the “Invasion rates (%)” value [12] is reported as 96.99% and the “Invasion rates (%)” value [13] is reported as 95.71%. For the same molecule, the “Invasion rates (%)” value [14] was 88.47% and the “Invasion rates (%)” value [15] was 1.26%.
Cc1ncc([N+](=O)[O-])n1C[C@@H](CN1CCOCC1)OP(=O)(O)O [Dextrorotation nimorazole phosphate ester] was tested, and the “Invasion rates (%)” value [11] was 97.64%, the “Invasion rates (%)” value [12] was 99.79% and the “Invasion rates (%)” value [13] was 97.40%. For the same molecule, the “Invasion rates (%)” value [14] was 85.31% and the “Invasion rates (%)” value [15] was 35.28%.
For CCCCCCCCCCCC[N+](C)(C)CCOc1ccccc1.[Br-] [Domiphen (bromide)], the “Invasion rates (%)” value [11] was 89.87%, the “Invasion rates (%)” value [12] was 94.08% and the “Invasion rates (%)” value [13] was 85.67%. For the same molecule, the “Invasion rates (%)” value [14] was 77.63% and the “Invasion rates (%)” value [15] was 66.00%.
In the case of Cc1ncc([N+](=O)[O-])n1CC(C)O (stereo not shown) [Secnidazole], the activity at 0.01 µM [1] is reported as 94.7%, the activity at 0.01 µM [6] is reported as 96.4% and the activity at 0.1 µM [2] is reported as 89%. The activity at 1 µM [3] was 82.8% and the activity at 10 µM [4] was 4.4%.
For COc1cccc2c1C(=O)c1c(O)c3c(c(O)c1C2=O)C[C@@](O)(C(C)=O)C[C@@H]3O[C@H]1C[C@H](N)[C@H](O)[C@H](C)O1.Cl [Daunorubicin (Hydrochloride)], the “Invasion rates (%)” value [11] was 95.45%, the “Invasion rates (%)” value [12] was 98.71% and the “Invasion rates (%)” value [13] was 93.45%. For the same molecule, the “Invasion rates (%)” value [14] was 64.89% and the “Invasion rates (%)” value [15] was 2.25%.
Work on CC1CCc2c(N3CCC(O)CC3)c(F)cc3c(=O)c(C(=O)O)cn1c23 (stereo not shown) [Nadifloxacin] yielded an activity at 0.01 µM [1] of 102%, an activity at 0.01 µM [6] of 104% and an activity at 0.1 µM [2] of 101%. The activity at 1 µM [3] was 100% and the activity at 10 µM [4] was 1.03%.
With CO[C@@]12[C@H](COC(N)=O)C3=C(C(=O)C(C)=C(N)C3=O)N1C[C@@H]1N[C@@H]12 [Mitomycin C] the activity at 0.01 µM [1] was 4.12%, the activity at 0.01 µM [5] was 41.6% and the activity at 0.01 µM [6] was 39.7%. The activity at 0.01 µM [7] was 93.2%, the activity at 0.1 µM [2] was 4.9% and the activity at 0.1 µM [8] was 2.22%. For the same molecule, the activity at 1 µM [3] was 3.56%, the activity at 1 µM [9] was 1.49% and the activity at 10 µM [4] was 2.5%. It also gave an activity at 10 µM [10] of 0.24% and an inhibition at 0.1 µM (Homo sapiens, at 0.1 μM, read-out: inhibition of cell invasion) greater than 50%.
With Gramicidin the “Invasion rates (%)” value [12] was 107.53%, the “Invasion rates (%)” value [13] was 94.19% and the “Invasion rates (%)” value [14] was 93.53%. The “Invasion rates (%)” value [15] was 0.41%.
CN(C)[C@@H]1C(=O)C(C(N)=O)=C(O)[C@@]2(O)C(=O)C3=C(O)c4c(O)ccc(Cl)c4[C@@](C)(O)[C@H]3C[C@@H]12.Cl [Chlortetracycline (hydrochloride)] was tested, and the “Invasion rates (%)” value [11] was 99.62%, the “Invasion rates (%)” value [12] was 99.02% and the “Invasion rates (%)” value [13] was 97.93%. The “Invasion rates (%)” value [14] was 95.42% and the “Invasion rates (%)” value [15] was 45.01%.
